Laboratory results: US20040063670A1, “Use of bisphosphonates for pain treatment” (priority 2000, published 2004)

What was measured:
Format in all cases: in vivo
[1] = test system: rat model of bone cancer pain; experiment: Rat model of bone cancer pain (intra-tibial MRMZ1 mammary gland carcinoma cells)
Method: Adult female rats were given intra-tibial injections of MRMZ1 rat mammary gland carcinoma cells (3 μl, 10^7 cells/ml). These animals gradually developed mechanical hyperalgesia, mechanical allodynia (skin sensitivity to non-noxious stimuli) and hind limb sparing, beginning on day 12-14 following cell injection.

[2] = test system: rat model of neuropathic pain; experiment: Neuropathic mechanical hyperalgesia (partial ligation of the left sciatic nerve)
Method: Mechanical hyperalgesia was examined in a rat model of neuropathic pain induced by partial ligation of the left sciatic nerve. Approximately 14 days following surgery mechanical withdrawal thresholds of both the ligated (ipsilateral) and non-ligated (contralateral) paw were measured prior to (predose) and then from 10 min to 6 h following drug or vehicle administration. Reversal of hyperalgesia at each time point was calculated according to the formula: [formula]
(§1) All experiments were carried out using groups of 6 animals. Stock concentrations of drugs were dissolved in distilled water and subsequent dilutions were made in 0.9% saline for subcutaneous administration in a volume of 4 mlkg^−1. All drugs were made up in plastic vials and kept in the dark.
(§2) Statistical analysis was carried out on withdrawal threshold readings (g) using ANOVA with repeated measures followed by Tukey's HSD test. Efficacy refers to the maximal reversal of hyperalgesia observed at the doses used.

[3] = test system: rat model of inflammatory pain; experiment: Inflammatory mechanical hyperalgesia (FCA, Randal-Sellito paw withdrawal threshold); conditions: for maximal reversal of mechanical hyperalgesia: ipsilateral paw, 24 h after FCA
Method: Mechanical hyperalgesia was examined in a rat model of inflammatory pain. Paw withdrawal thresholds to an increasing pressure stimulus were measured by the Randal-Sellito technique using an analgesymeter (Ugo Basile, Milan), in naïve animals prior to an intraplantar injection of complete Freund's complete adjuvant (FCA) into the left hind paw. 24 h later paw withdrawal thresholds were measured again prior to (predose) and then from 10 min to 6 h following drug or vehicle administration. Reversal of hyperalgesia in the ipsilateral paw was calculated according to the formula: [formula]
as §1, §2

[4] = 10 and 30 μg/kg s.c. 3 times a week from the day of cell injection

Structure (SMILES): O=P(O)(O)C(O)(Cn1ccnc1)P(=O)(O)O [Zoledronate, 1-hydroxy-2-(imidazol-1-yl)ethane-1,1-diphosphonic acid]
- hind limb sparing [1, 4]: profound inhibition
- mechanical allodynia [1, 4]: profound inhibition
- development of hind limb sparing over 19 days ([1]; higher dose (30 μg/kg s.c. 3 times a week), 19 days following intra-tibial cell injection): did not develop any sign of hind limb sparing
- acute effect of a single injection ([1]; single injection 100 μg/kg s.c. on day 19): no acute effect
- time to maximal reversal of mechanical hyperalgesia ([2]; 0.003-0.1 mgkg^−1 s.c.): ≤ 30 min
- reversal of mechanical hyperalgesia (maximal) ([2]; 0.003-0.1 mgkg^−1 s.c., about 14 days after surgery): 40%
- contralateral paw withdrawal thresholds ([2]; highest dose of 0.003-0.1 mgkg^−1 s.c.): significant reduction
- time to maximal reversal of mechanical hyperalgesia ([3]; 0.003-0.1 mgkg^−1 s.c.): ≤ 30 min
- activity 3 h following administration (duration) ([3]; 0.003-0.1 mgkg^−1 s.c., 3 h after administration): no significant activity
- maximal reversal of mechanical hyperalgesia ([3]; 0.003-0.1 mgkg^−1 s.c.): 100%
- maximal reversal of mechanical hyperalgesia ([3]; 0.003-0.1 mgkg^−1 s.c., listed as zoledronic acid): about 100%
- contralateral activity ([3]; highest dose of 0.003-0.1 mgkg^−1 s.c., contralateral paw): Some contralateral activity

Structure (SMILES): CN1CC[C@]23c4c5ccc(O)c4O[C@H]2[C@@H](O)C=C[C@H]3[C@H]1C5 [morphine]
- mechanical allodynia ([1]; acute treatment, 1-10 mg/kg s.c.): dose dependent reduction
- hind limb sparing ([1]; acute treatment, highest dose only (of 1-10 mg/kg s.c.)): significant reduction

Structure (SMILES): NCCC(O)(P(=O)(O)O)P(=O)(O)O [Pamidronate, 3-amino-1-hydroxypropane-1,1-diphosphonic acid]
- contralateral paw withdrawal thresholds ([2]; 0.03-1 mgkg^−1 s.c.): some reductions
- maximal reversal of hyperalgesia ([2]; 0.03-1 mgkg^−1 s.c.): 20%
- reversing inflammatory mechanical hyperalgesia ([3]; 0.03-1 mgkg^−1 s.c.): ineffective
- paw withdrawal thresholds ([3]; highest dose tested of 0.03-1 mgkg^−1 s.c.): slight reductions

Structure (SMILES): O=P(O)(O)C(Cl)(Cl)P(=O)(O)O [Clodronate, 1,1-dichloromethane-1,1-diphosphonic acid]
- activity in the model of neuropathic pain (reversal of hyperalgesia) ([2]; 0.3-10 mgkg^−1 s.c.): inactive
- contralateral paw withdrawal thresholds ([2]; 0.3-10 mgkg^−1 s.c.): some reductions
- reversing inflammatory mechanical hyperalgesia ([3]; 0.3-10 mgkg^−1 s.c.): ineffective
- paw withdrawal thresholds ([3]; highest dose tested of 0.3-10 mgkg^−1 s.c.): slight reductions
